Data from patent publication US9676758B2, “1-heteroaryl-indoline-4-carboxamides as modulators of GPR52 useful for the treatment or prevention of disorders related thereto” (Arena Pharmaceuticals, Inc., priority 2015, dated 2017).

How the values were obtained:
recombinant GPR52 = target: T1, recombinant GPR52 (Homo sapiens, UniProt Q9Y2T5); assay: HTRF cAMP assay for direct cAMP measurement; assay type: cell-based; conditions: mean EC50; CHO-K1 or HEK293 cells stably expressing recombinant GPR52
T1 construct: expressed in transfected cells
Method: HTRF cAMP assays were performed using commercially available assay kits according to the manufacturer's instructions (cAMP Dynamic 2 Assay Kit; #62AM4PEJ, Cisbio Bioassays, Bedford, Mass.). CHO-K1 or HEK293 cells stably expressing recombinant GPR52 were harvested and resuspended in assay buffer (PBS containing 0.5 mM IBMX and 0.1% BSA) at a density of 1.2×10^6 cells per mL. […] Test compounds were solubilized and serially diluted in DMSO using 5-fold dilutions to generate 10-point dose response curves. These serially diluted samples were then further diluted in PBS to achieve a 2× stock. The diluted compounds were transferred to triplicate assay plates (5 μL per well to achieve the 1× final assay concentration). A positive control was included in each assay run. After one-hour incubation at room temperature, 5 μL of cAMP D2 reagent diluted in lysis buffer was added to each well, followed by 5 μL of cryptate reagent. Plates were then incubated at room temperature for one hour prior to reading. Time-resolved fluorescence measurements were collected on an HTRF-capable plate reader (e.g., EnVision® (PerkinElmer, Waltham, Mass.) or PHERAstar (BMG LABTECH, Cary, N.C.)). Counts from the plate reader were fit to the cAMP standard curve included on each plate to determine the amount of cAMP in each test well. Dose-response curves were generated from the cAMP data and analyzed using a nonlinear least squares curve-fitting program to obtain EC50 values.

[1] = Brain penetration (plasma and brain exposure); assay type: in vivo, mouse; conditions: male C57BL6 mice, 60 minute time point
Method: Plasma and brain exposure were evaluated to determine the brain penetration of compounds described herein. Male C57BL6 mice were administered a single per oral (PO) dose of compound at 3 or 10 mg/kg (as a free base) formulated in 20% HPCD in 0.9% NaCl. Blood and brain samples were collected 60 minutes post-dose (n=3-6 animals). Blood was collected via cardiac puncture and stored on ice prior to the separation of plasma by centrifugation. Brains were extracted from the cranium and frozen on dry ice. Tissue samples were stored at approximately −80° C. prior to bioanalytical analysis.
Analyte plasma and brain concentrations were determined by LC/MS/MS.

male C57/BL6 mice = assay: Mouse basal locomotor activity; assay type: in vivo; conditions: po, 10 mg/kg P.O.
Method: To measure basal locomotor activity, male C57/BL6 mice (8-16 weeks) (Jackson Laboratories, Sacramento, Calif.) were transferred in home cages to the testing room approximately 60 minutes prior to testing. Approximately 15 minutes after arrival in the testing room, a dark cycle commenced, with lights turning off and infrared lights turning on for experimenter visibility. Thirty minutes after the lights were turned off, animals were individually weighed and administered either vehicle (20% hydroxypropyl-β-cyclodextrin) Compound 13 (1, 2, 5, 10, or 20 mg/kg P.O.), or another GPR52 agonist (10 mg/kg P.O.) and returned to home cages. Fifteen minutes later, mice were placed into locomotor cages and activity was recorded for 60 minutes.

T1 sequence (Q9Y2T5 whole entry): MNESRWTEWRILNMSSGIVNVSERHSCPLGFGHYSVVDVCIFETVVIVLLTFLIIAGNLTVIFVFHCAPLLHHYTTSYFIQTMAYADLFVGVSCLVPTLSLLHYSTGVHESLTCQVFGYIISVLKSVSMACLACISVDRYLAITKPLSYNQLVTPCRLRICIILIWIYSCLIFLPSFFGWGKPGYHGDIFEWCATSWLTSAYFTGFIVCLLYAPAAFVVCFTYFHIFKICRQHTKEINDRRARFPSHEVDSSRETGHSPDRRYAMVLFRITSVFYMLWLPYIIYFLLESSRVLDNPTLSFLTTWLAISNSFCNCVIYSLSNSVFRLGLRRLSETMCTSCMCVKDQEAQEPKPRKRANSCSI

Structure (SMILES)	EC50 (recombinant GPR52) [nM]	Brain/Plasma Ratio ([1]; PO dose 10 mg/kg)	inhibition at 10 mg/kg (male C57/BL6 mice) [%]	Brain/Plasma Ratio ([1]; PO dose 3 mg/kg)
COc1ccc(Cc2ccnc(N3CCc4c(C(N)=O)cccc43)c2)cc1F [Compound 54, 1-(4-(3-Fluoro-4-methoxybenzyl)pyridin-2-yl)indoline-4-carboxamide]	5.57	6.32	66	–
NC(=O)c1cccc2c1CCN2c1cc(Cc2cncc(C(F)(F)F)c2)ccn1 [Compound 47, 1-(4-((5-(Trifluoromethyl)pyridin-3-yl)methyl)pyridin-2-yl)indoline-4-carboxamide]	–	4.67	–	–
NC(=O)c1cccc2c1CCN2c1cc(Cc2cc(F)cc(Cl)c2)ccn1 [Compound 42, 1-(4-(3-Chloro-5-fluorobenzyl)pyridin-2-yl)indoline-4-carboxamide]	–	12.40	–	–
O=C(NC1CCN(CCO)CC1)c1cccc2c1CCN2c1cc(Cc2ccc3c(c2)CCO3)ccn1 [Compound 79, 1-(4-((2,3-Dihydrobenzofuran-5-yl)methyl)pyridin-2-yl)-N-(1-(2-hydroxyethyl)piperidin-4-yl)indoline-4-carboxamide]	–	0.16	–	–
COc1ccc(Cc2ccnc(N3CCc4c(C(=O)NC[C@@H](F)CO)cccc43)c2)cc1F [Compound 202, (R)—N-(2-Fluoro-3-hydroxypropyl)-1-(4-(3-fluoro-4-methoxybenzyl)pyridin-2-yl)indoline-4-carboxamide]	–	–	67	–
C[C@@H](O)CNC(=O)c1cccc2c1CCN2c1cc(Cc2cc(F)c(F)c(F)c2)ccn1 [Compound 179, (R)—N-(2-Hydroxypropyl)-1-(4-(3,4,5-trifluorobenzyl)pyridin-2-yl)indoline-4-carboxamide]	–	–	68	–
NC(=O)c1cccc2c1CCN2c1cc(Cc2ccc3occc3c2)ccn1 [Compound 106, 1-(4-(Benzofuran-5-ylmethyl)pyridin-2-yl)indoline-4-carboxamide]	–	–	81	–
O=C(NCCO)c1c(F)ccc2c1CCN2c1cc(Cc2cc(F)c(F)c(F)c2)ccn1 [Compound 140, 5-Fluoro-N-(2-hydroxyethyl)-1-(4-(3,4,5-trifluorobenzyl)pyridin-2-yl)indoline-4-carboxamide]	30.1	–	68	–
O=C(NCCO)c1cccc2c1CCN2c1cc(Cc2cc(F)cc(Cl)c2)ccn1 [Compound 43, 1-(4-(3-Chloro-5-fluorobenzyl)pyridin-2-yl)-N-(2-hydroxyethyl)indoline-4-carboxamide]	9.76	5.45	79	–
COC[C@@H](O)CNC(=O)c1cccc2c1CCN2c1cc(Cc2cc(F)c(F)c(F)c2)ccn1 [Compound 138, (S)—N-(2-Hydroxy-3-methoxypropyl)-1-(4-(3,4,5-trifluorobenzyl)pyridin-2-yl)indoline-4-carboxamide]	–	–	72	–
NC(=O)c1cccc2c1CCN2c1cc(Cc2ccc(F)c(C(F)(F)F)c2)ccn1 [Compound 61, 1-(4-(4-Fluoro-3-(trifluoromethyl)benzyl)pyridin-2-yl)indoline-4-carboxamide]	–	–	61	–
NC(=O)c1cccc2c1CCN2c1cc(Cc2ccc(F)c(Cl)c2)ccn1 [Compound 58, 1-(4-(3-Chloro-4-fluorobenzyl)pyridin-2-yl)indoline-4-carboxamide]	–	7.76	–	–
COc1ccc(Cc2ccnc(N3CCc4c(C(=O)NCCO)cccc43)c2)cc1F [Compound 69, 1-(4-(3-Fluoro-4-methoxybenzyl)pyridin-2-yl)-N-(2-hydroxyethyl)indoline-4-carboxamide]	3.11	0.87	–	–
O=C(NCCO)c1c(F)ccc2c1CCN2c1cc(Cc2cccc(C(F)(F)F)c2)ccn1 [Compound 108, 5-Fluoro-N-(2-hydroxyethyl)-1-(4-(3-(trifluoromethyl)benzyl)pyridin-2-yl)indoline-4-carboxamide]	–	1.67	–	–
O=C(NC[C@@H](F)CO)c1cccc2c1CCN2c1cc(Cc2cc(F)c(F)c(F)c2)ccn1 [Compound 166, (R)—N-(2-Fluoro-3-hydroxypropyl)-1-(4-(3,4,5-trifluorobenzyl)pyridin-2-yl)indoline-4-carboxamide]	12.2	2.85	70	–
NC(=O)c1cccc2c1CCN2c1cc(Cc2cccc(C(F)(F)F)c2)ccn1 [Compound 5, 1-(4-(3-(Trifluoromethyl)benzyl)pyridin-2-yl)indoline-4-carboxamide]	–	–	–	4.49
COc1ccc(Cc2ccnc(N3CCc4c3ccc(F)c4C(=O)NC[C@@H](F)CO)c2)cc1F [Compound 167, (R)-5-Fluoro-N-(2-fluoro-3-hydroxypropyl)-1-(4-(3-fluoro-4-methoxybenzyl)pyridin-2-yl)indoline-4-carboxamide]	18.2	–	62	–
O=C(NCCO)c1cccc2c1CCN2c1cc(Cc2cc(F)c(F)c(F)c2)ccn1 [Compound 92, N-(2-Hydroxyethyl)-1-(4-(3,4,5-trifluorobenzyl)pyridin-2-yl)indoline-4-carboxamide]	8.87	3.00	65	–
N#Cc1cc(Cc2ccnc(N3CCc4c(C(N)=O)cccc43)c2)ccc1F [Compound 60, 1-(4-(3-Cyano-4-fluorobenzyl)pyridin-2-yl)indoline-4-carboxamide]	11.7	–	–	–
O=C(NCCO)c1cccc2c1CCN2c1cc(Oc2cc(F)cc(C(F)(F)F)c2)ccn1 [Compound 23, 1-(4-(3-Fluoro-5-(trifluoromethyl)phenoxy)pyridin-2-yl)-N-(2-hydroxyethyl)indoline-4-carboxamide]	98.4	–	–	–
O=C(NCC1(CO)COC1)c1c(F)ccc2c1CCN2c1cc(Cc2cc(F)c(F)c(F)c2)ccn1 [Compound 155, 5-Fluoro-N-((3-(hydroxymethyl)oxetan-3-yl)methyl)-1-(4-(3,4,5-trifluorobenzyl)pyridin-2-yl)indoline-4-carboxamide]	55.9	–	–	–
NC(=O)c1cccc2c1CCN2c1cc(Cc2cnc(F)c(F)c2)ccn1 [Compound 49, 1-(4-((5,6-Difluoropyridin-3-yl)methyl)pyridin-2-yl)indoline-4-carboxamide]	61.6	–	–	–
Cc1cc(Cc2cccc(C(F)(F)F)c2)cc(N2CCc3c(C(N)=O)cccc32)n1 [Compound 17, 1-(6-Methyl-4-(3-(trifluoromethyl)benzyl)pyridin-2-yl)indoline-4-carboxamide]	80.4	–	–	–
CC(=O)c1cccc(Cc2ccnc(N3CCc4c(C(N)=O)cccc43)c2)c1 [Compound 78, 1-(4-(3-Acetylbenzyl)pyridin-2-yl)indoline-4-carboxamide]	11.2	1.36	72	–
O=C(N[C@H]1CCOC1)c1cccc2c1CCN2c1cc(Cc2cccc(C(F)(F)F)c2)ccn1 [Compound 4, (S)-N-(Tetrahydrofuran-3-yl)-1-(4-(3-(trifluoromethyl)benzyl)pyridin-2-yl)indoline-4-carboxamide]	12.3	–	–	–
